Columns and labels:
[1] = Visual evaluation of discoloration of powder lotion-type antiperspirant lotions; format: physicochemical
Method: Recipes shown in Table 1-1 and Table 1-2 were used to prepare powder lotion-type antiperspirant lotions and the degree of discoloration was evaluated visually. For Comparative examples, a recipe containing no trisodium ethylenediaminehydroxyethyl triacetate and a recipe containing a chelating agent EDTA-3Na.2H2O instead of trisodium ethylenediaminehydroxyethyl triacetate were investigated. The degree of discoloration was evaluated by giving ◯ to those that are within the acceptable range for skin treatment composition, and × to those that are outside of this range.

[2] = Staining of clothing after application, sunlight exposure and washing (visual observation); format: physicochemical
Method: Recipes shown in Table 3-1 and Table 3-2 were used to prepare powder lotion-type antiperspirant lotions and a prescribed amount (4 micrograms/cm^2) is applied on clothing. The clothing was exposed to sunlight (10 minutes) and washed with common laundry detergent in a washing machine; the degree of staining was then evaluated by visual observation. For Comparative examples, recipes not containing polyoxyethylene polyoxypropylene 2-decyltetradecyl ether (20-28 E.O.) (10-16 P.O.) and recipes containing polyoxyethylene (E.O. 60) were investigated. The degree of staining was evaluated by giving ◯ to those that are within the acceptable range for skin treatment compositions, and × to those that are outside of this range.

Row | Compound | anti-discoloration effect of the ingredient in skin treatment compositions containing anti-bacterial zeolite [1] | anti-staining effect of the ingredient in skin treatment compositions containing anti-bacterial zeolite [2]
1 | O=C([O-])CN(CCN(CC(=O)[O-])CC(=O)O)CC(=O)[O-].[Na+].[Na+].[Na+] [EDTA-3Na] | do not have the anti-discoloration effect | 
2 | O=C([O-])CN(CCO)CCN(CC(=O)[O-])CC(=O)[O-].[Na+].[Na+].[Na+] [trisalt ethylenediaminehydroxyethyl triacetate] | acts as an anti-discoloration agent | 
3 | polyoxyethylene (E.O. 60) hydrogenated castor oil |  | do not have an anti-staining effect
4 | polyoxyethylene polyoxypropylene 2-decyltetradecyl ether (20-28 E.O.) (10-16 P.O.) |  | acts as an anti-staining agent

Source: patent publication US20060099161A1, “Skin preparations for external use” (priority 2002, published 2006)
